Results as given in article PMC10298530, “Synthesis and Anticancer Activity of A-Ring-Modified Derivatives of Dihydrobetulin” (International Journal of Molecular Sciences, 2023).

System: Active Caspase-3 in HBL-100 cells
Assay: Flow cytometric analysis of active caspase-3, HBL-100
Format: cell-based, human
Details: 24 h
Description: The cells were detached with accutase (HiMedia Laboratories, Maharashtra, India) and then fixed with 70% ice cold ethanol followed by overnight incubation at 4 °C. The cells were washed twice with PBS, permeabilized using 0.1% Triton X-100 in PBS solution, and subsequently stained with 5 μL of the BD Horizon™ BV605 Rabbit Anti-Active Caspase-3 antibody (BD Biosciences, Franklin Lakes, NJ, USA). The cells were then washed, resuspended in PBS, and analyzed using a CytoFlex S flow cytometer (Beckman Coulter, Brea, CA, USA). Cell fluorescence was evaluated on a CytoFlex S flow cytometer (Beckman Coulter, Brea, CA, USA). The results were analyzed using FlowJo software (ver. X 10.0.7r2, FlowJo Software, San Jose, CA, USA) and represented as geometric mean fluorescence intensity (gMFI).

In the case of COC(=O)[C@]12CC[C@@H](C(C)C)[C@@H]1[C@H]1CC[C@@H]3[C@@](C)(CCC#N)[C@H](C(=O)C(Br)Br)CC[C@@]3(C)[C@]1(C)CC2 [compound 31, 2-Cyano-24,24-dibromo-4-oxo-3,4-seco-3,23-dinorlupan-28-oic acid methyl ester], the “gMIF, Active Caspase-3” value (dose 2×IC50) is reported as 11048±278 and the “gMIF, Active Caspase-3” value (dose IC50) is reported as 6755±301.
